Literature values, collected in US20050158411A1, “Methods and apparatus to prevent, treat, and cure the symptoms of nauea caused by chemotherapy treatments of human cancers” (priority 2000, published 2005).
“Also recorded” adds a separate entry of the source.

Assays:
[1] = tested on: fungal infection of the toenails; conditions: after six months
[2] = tested on: SARS virus growing in tissue cultures

SMILES	effectiveness for fungal infection of the toenails [1]	effect against the SARS virus [2]
Clc1ccccc1C(c1ccccc1)(c1ccccc1)n1ccnc1 [clotrimazole]	equally effective	
NC(=O)c1ncn([C@@H]2O[C@H](CO)[C@@H](O)[C@H]2O)n1 [ribavirin]		no evidence that the drug has any effect; also recorded: conclusively shown ineffective
